ChEMBL document CHEMBL4308841, “Synthesis, in vitro antiproliferative activity, and kinase inhibitory effects of pyrazole-containing diarylureas and diarylamides” (Eur J Med Chem, 2018)

Tests used:
[1] = system: HCT-15; assay: Growth inhibition of human HCT15 cells incubated for 48 hrs by sulforhodamine B assay; type: functional, cell-based; conditions: HCT-15, 48 h
[2] = system: SF-539; assay: Growth inhibition of human SF539 cells incubated for 48 hrs by sulforhodamine B assay; type: functional, cell-based; conditions: SF-539, 48 h
[3] = system: MCF7; assay: Growth inhibition of human MCF7 cells incubated for 48 hrs by sulforhodamine B assay; type: functional, cell-based; conditions: MCF7, 48 h
[4] = system: CCRF-CEM; assay: Growth inhibition of human CCRF-CEM cells assessed as cell growth at 0.01 uM incubated for 48 hrs by sulforhodamine B assay relative to control; type: functional; conditions: read-out: Activity
[5] = system: KM12; assay: Growth inhibition of human KM12 cells assessed as cell growth at 0.01 uM incubated for 48 hrs by sulforhodamine B assay relative to control; type: functional; conditions: KM12, 48 h, read-out: Activity
[6] = system: SF-295; assay: Growth inhibition of human SF295 cells assessed as cell growth at 0.01 uM incubated for 48 hrs by sulforhodamine B assay relative to control; type: functional; conditions: SF-295, 48 h, read-out: Activity
[7] = system: OVCAR-5; assay: Growth inhibition of human OVCAR5 cells assessed as cell growth at 0.01 uM incubated for 48 hrs by sulforhodamine B assay relative to control; type: functional; conditions: OVCAR-5, 48 h, read-out: Activity
[8] = system: MCF7; assay: Growth inhibition of human MCF7 cells assessed as cell growth at 0.01 uM incubated for 48 hrs by sulforhodamine B assay relative to control; type: functional; conditions: MCF7, 48 h, read-out: Activity
[9] = system: RPMI-8226; assay: Growth inhibition of human RPMI8226 cells assessed as cell growth at 0.1 uM incubated for 48 hrs by sulforhodamine B assay relative to control; type: functional; conditions: RPMI-8226, 48 h, read-out: Activity
[10] = system: NCI-H226; assay: Growth inhibition of human NCI-H226 cells assessed as cell growth at 0.1 uM incubated for 48 hrs by sulforhodamine B assay relative to control; type: functional; conditions: NCI-H226, 48 h, read-out: Activity
[11] = system: SW-620; assay: Growth inhibition of human SW620 cells assessed as cell growth at 0.1 uM incubated for 48 hrs by sulforhodamine B assay relative to control; type: functional; conditions: SW-620, 48 h, read-out: Activity
[12] = system: SF-268; assay: Growth inhibition of human SF268 cells assessed as cell growth at 0.1 uM incubated for 48 hrs by sulforhodamine B assay relative to control; type: functional; conditions: SF-268, 48 h, read-out: Activity
[13] = system: MDA-MB-435; assay: Growth inhibition of human MDA-MB-435 cells assessed as cell growth at 0.1 uM incubated for 48 hrs by sulforhodamine B assay relative to control; type: functional; conditions: MDA-MB-435, 48 h, read-out: Activity
[14] = system: OVCAR-3; assay: Growth inhibition of human OVCAR3 cells assessed as cell growth at 0.1 uM incubated for 48 hrs by sulforhodamine B assay relative to control; type: functional; conditions: OVCAR-3, 48 h, read-out: Activity
[15] = system: RXF 393; assay: Growth inhibition of human RXF393 cells assessed as cell growth at 0.1 uM incubated for 48 hrs by sulforhodamine B assay relative to control; type: functional; conditions: RXF 393, 48 h, read-out: Activity
[16] = system: T47D; assay: Growth inhibition of human T47D cells assessed as cell growth at 0.1 uM incubated for 48 hrs by sulforhodamine B assay relative to control; type: functional; conditions: read-out: Activity
[17] = system: HCT-15; assay: Growth inhibition of human HCT15 cells assessed as cell growth at 1 uM incubated for 48 hrs by sulforhodamine B assay relative to control; type: functional; conditions: HCT-15, 48 h, read-out: Activity
[18] = system: IGROV-1; assay: Growth inhibition of human IGROV1 cells assessed as cell growth at 1 uM incubated for 48 hrs by sulforhodamine B assay relative to control; type: functional; conditions: IGROV-1, 48 h, read-out: Activity
[19] = system: OVCAR-3; assay: Growth inhibition of human OVCAR3 cells assessed as cell growth at 1 uM incubated for 48 hrs by sulforhodamine B assay relative to control; type: functional; conditions: OVCAR-3, 48 h, read-out: Activity
[20] = system: OVCAR-4; assay: Growth inhibition of human OVCAR4 cells assessed as cell growth at 1 uM incubated for 48 hrs by sulforhodamine B assay relative to control; type: functional; conditions: OVCAR-4, 48 h, read-out: Activity
[21] = system: 786-0; assay: Growth inhibition of human 786-0 cells assessed as cell growth at 1 uM incubated for 48 hrs by sulforhodamine B assay relative to control; type: functional; conditions: 786-0, 48 h, read-out: Activity
[22] = system: SN12C; assay: Growth inhibition of human SN12C cells assessed as cell growth at 1 uM incubated for 48 hrs by sulforhodamine B assay relative to control; type: functional; conditions: read-out: Activity
[23] = system: UO-31; assay: Growth inhibition of human UO31 cells assessed as cell growth at 1 uM incubated for 48 hrs by sulforhodamine B assay relative to control; type: functional; conditions: UO-31, 48 h, read-out: Activity
[24] = system: Hs-578T; assay: Growth inhibition of human Hs578T cells assessed as cell growth at 1 uM incubated for 48 hrs by sulforhodamine B assay relative to control; type: functional; conditions: read-out: Activity
[25] = system: K562; assay: Growth inhibition of human K562 cells assessed as cell growth at 100 uM incubated for 48 hrs by sulforhodamine B assay relative to control; type: functional; conditions: K562, 48 h, read-out: Activity
[26] = system: COLO 205; assay: Growth inhibition of human COLO205 cells assessed as cell growth at 100 uM incubated for 48 hrs by sulforhodamine B assay relative to control; type: functional; conditions: COLO 205, 48 h, read-out: Activity
[27] = system: KM12; assay: Growth inhibition of human KM12 cells assessed as cell growth at 100 uM incubated for 48 hrs by sulforhodamine B assay relative to control; type: functional; conditions: KM12, 48 h, read-out: Activity
[28] = system: LOX IMVI; assay: Growth inhibition of human LOXIMVI cells assessed as cell growth at 100 uM incubated for 48 hrs by sulforhodamine B assay relative to control; type: functional; conditions: read-out: Activity
[29] = system: A498; assay: Growth inhibition of human A498 cells assessed as cell growth at 100 uM incubated for 48 hrs by sulforhodamine B assay relative to control; type: functional; conditions: A498, 48 h, read-out: Activity
[30] = system: RXF 393; assay: Growth inhibition of human RXF393 cells assessed as cell growth at 100 uM incubated for 48 hrs by sulforhodamine B assay relative to control; type: functional; conditions: RXF 393, 48 h, read-out: Activity
[31] = system: BT-549; assay: Growth inhibition of human BT549 cells assessed as cell growth at 100 uM incubated for 48 hrs by sulforhodamine B assay relative to control; type: functional; conditions: BT-549, 48 h, read-out: Activity
[32] = system: T47D; assay: Growth inhibition of human T47D cells assessed as cell growth at 100 uM incubated for 48 hrs by sulforhodamine B assay relative to control; type: functional; conditions: read-out: Activity
[33] = read-out: LC50 (the source's name)
[34] = read-out: pLC50 (the source's name) (converted)

O=C(Nc1cccc(-n2cc(-c3ccncc3)c(-c3cc(O)cc(Cl)c3)n2)c1)Nc1ccc(Cl)c(Cl)c1
GI50 ([1]; read-out: GI50): 2.1 µM | CC50 [1, 33]: > 100 µM | TGI ([1]; read-out: TGI): 80.4 µM | GI50 ([1]; read-out: pGI50 (converted)): 2.09 µM | CC50 [1, 34]: > 100 µM | TGI ([1]; read-out: pTGI (converted)): 8.13 µM | GI50 ([2]; read-out: GI50): 1.44 µM | CC50 [2, 33]: 7.4 µM | TGI ([2]; read-out: TGI): 32.7 µM | GI50 ([2]; read-out: pGI50 (converted)): 1.45 µM | CC50 [2, 34]: 7.41 µM | TGI ([2]; read-out: pTGI (converted)): 3.24 µM | GI50 ([3]; read-out: GI50): 2.51 µM | LC50 ([3]; read-out: LC50): > 100 µM | TGI ([3]; read-out: TGI): 97.4 µM | GI50 ([3]; read-out: pGI50 (converted)): 2.82 µM | LC50 ([3]; read-out: pLC50 (converted)): > 100 µM | TGI ([3]; read-out: pTGI (converted)): 9.77 µM | growth at 0.01 µM [4]: 96% | growth at 0.01 µM [5]: 102% | growth at 0.01 µM [6]: 92% | growth at 0.01 µM [7]: 53% | growth at 0.01 µM [8]: 93% | growth at 0.1 µM [9]: 103% | growth at 0.1 µM [10]: 89% | growth at 0.1 µM [11]: 99% | growth at 0.1 µM [12]: 98% | growth at 0.1 µM [13]: 93% | growth at 0.1 µM [14]: 101% | growth at 0.1 µM [15]: 85% | growth at 0.1 µM [16]: 88% | growth at 1 µM [17]: 75% | growth at 1 µM [18]: 95% | growth at 1 µM [19]: 85% | growth at 1 µM [20]: 100% | growth at 1 µM [21]: 71% | growth at 1 µM [22]: 58% | growth at 1 µM [23]: 78% | growth at 1 µM [24]: 57% | growth at 100 µM [25]: 5% | growth at 100 µM [26]: -88% | growth at 100 µM [27]: -63% | growth at 100 µM [28]: -38% | growth at 100 µM [29]: -79% | growth at 100 µM [30]: -52% | growth at 100 µM [31]: -38% | growth at 100 µM [32]: -39%

COc1cc(Cl)cc(-c2nn(-c3cccc(NC(=O)Nc4cc(C(F)(F)F)cc(C(F)(F)F)c4)c3)cc2-c2ccncc2)c1
IC50 [1]: 0.35 µM | GI50 ([1]; read-out: GI50): 0.352 µM | TGI ([1]; read-out: TGI): 2.25 µM | GI50 ([1]; read-out: pGI50 (converted)): 0.355 µM | CC50 [1, 34]: 74.1 µM | TGI ([1]; read-out: pTGI (converted)): 2.82 µM | IC50 [2]: 1.41 µM | CC50 [2, 33]: 0.055 µM | TGI ([2]; read-out: TGI): 3.49 µM | GI50 ([2]; read-out: pGI50 (converted)): 1.41 µM | CC50 [2, 34]: 8.71 µM | TGI ([2]; read-out: pTGI (converted)): 3.55 µM | IC50 [3]: 0.38 µM | GI50 ([3]; read-out: GI50): 0.354 µM | LC50 ([3]; read-out: LC50): > 100 µM | TGI ([3]; read-out: TGI): 9.32 µM | GI50 ([3]; read-out: pGI50 (converted)): 0.38 µM | LC50 ([3]; read-out: pLC50 (converted)): > 100 µM | TGI ([3]; read-out: pTGI (converted)): 9.33 µM | growth at 0.01 µM [4]: 87% | growth at 0.01 µM [5]: 97% | growth at 0.01 µM [6]: 95% | growth at 0.01 µM [7]: 99% | growth at 0.01 µM [8]: 58% | growth at 0.1 µM [9]: 87% | growth at 0.1 µM [10]: 102% | growth at 0.1 µM [11]: 94% | growth at 0.1 µM [12]: 99% | growth at 0.1 µM [13]: 98% | growth at 0.1 µM [14]: 95% | growth at 0.1 µM [15]: 101% | growth at 0.1 µM [16]: 96% | growth at 1 µM [17]: 17% | growth at 1 µM [18]: 33% | growth at 1 µM [19]: 5% | growth at 1 µM [20]: 30% | growth at 1 µM [21]: 38% | growth at 1 µM [22]: 17% | growth at 1 µM [23]: 15% | growth at 1 µM [24]: 50% | growth at 100 µM [25]: -42% | growth at 100 µM [26]: -68% | growth at 100 µM [27]: -83% | growth at 100 µM [29]: -59% | growth at 100 µM [30]: -92% | growth at 100 µM [31]: -80% | growth at 100 µM [32]: -22%
